# In US20240246937A1 (MERCK SHARP & DOHME LLC, priority 2021, published 2024):
# Target: recombinant IL4I1 (Homo sapiens (Human), UniProt Q96RQ9)
# Assay: IL4I1 Enzymatic Assay (Amplex Red/HRP coupled fluorescence detection of H2O2)
# Format: biochemical
# Conditions: 240 min; recombinant IL4I1, four-hour pre-incubation with compound
# Outline: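 Recombinant human IL4I1 (1 nM final) pre-incubated 4 h with compound at ambient temperature in 50 mM Hepes pH 7.0, 0.005% Tween20. Started with 1 mM each Phe/Tyr/Trp plus Amplex Red/HRP; H2O2-derived resorufin fluorescence read after 120 min; EC50 from ten-point 1:3 titration, four-parameter fit.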
# recombinant IL4I1, sequence (Q96RQ9 22-567): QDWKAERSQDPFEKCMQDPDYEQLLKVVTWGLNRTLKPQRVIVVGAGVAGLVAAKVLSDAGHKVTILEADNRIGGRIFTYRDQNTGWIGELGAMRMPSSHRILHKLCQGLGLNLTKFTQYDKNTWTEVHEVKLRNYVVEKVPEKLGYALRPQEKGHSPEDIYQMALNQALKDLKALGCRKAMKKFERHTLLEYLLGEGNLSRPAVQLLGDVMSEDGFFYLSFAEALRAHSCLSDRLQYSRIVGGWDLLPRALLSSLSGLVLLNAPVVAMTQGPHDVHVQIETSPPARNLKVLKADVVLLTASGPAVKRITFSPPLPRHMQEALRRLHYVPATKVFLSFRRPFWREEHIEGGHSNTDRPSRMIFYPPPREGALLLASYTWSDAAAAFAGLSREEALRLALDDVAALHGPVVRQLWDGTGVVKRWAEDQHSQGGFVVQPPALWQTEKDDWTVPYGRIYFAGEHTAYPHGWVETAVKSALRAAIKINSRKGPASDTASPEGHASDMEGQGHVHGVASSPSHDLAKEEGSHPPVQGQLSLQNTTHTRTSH
row,Compound,EC50
1,"O=c1c(=O)n([C@H]2C[C@H]3C[C@H]3C2)ccn1Cc1ccc(-c2ccccc2F)nn1 [Example 50, 1-((cis)-bicyclo[3.1.0]hexan-3-yl)-4-((6-(2-fluorophenyl)pyridazin-3-yl)methyl)-1,4-dihydropyrazine-2,3-dione]",4 nM
2,"O=c1c(=O)n(C2(CF)CC2)ccn1Cc1ccc(-c2nccs2)nn1 [Example 233, 1-(1-(fluoromethyl)cyclopropyl)-4-((6-(thiazol-2-yl)pyridazin-3-yl)methyl)-1,4-dihydropyrazine-2,3-dione]",54 nM
3,"O=c1c(=O)n(C2CCCC2)ccn1Cc1ccc(-c2ccccc2)nn1 [Example 52, 1-cyclopentyl-4-((6-phenylpyridazin-3-yl)methyl)-1,4-dihydropyrazine-2,3-dione]",4 nM
4,"O=c1c(=O)n(C2(CF)CC2)ccn1Cc1ccc(-n2ccnn2)cn1 [Example 261, 1-((5-(1H-1,2,3-triazol-1-yl)pyridin-2-yl)methyl)-4-(1-(fluoromethyl)cyclopropyl)-1,4-dihydropyrazine-2,3-dione]",178 nM
5,"O=C1C(=O)N(C2CCC2)CCN1Cc1ncc(-c2ccccc2F)s1 [Example 426, 1-cyclobutyl-4-((5-(2-fluorophenyl)thiazol-2-yl)methyl)piperazine-2,3-dione]",5 nM
6,"O=C1C(=O)N(C2CCCC2)CCN1Cc1ccc(N2CCC(F)(F)C2)nc1 [Example 392, 1-cyclopentyl-4-((6-(3,3-difluoropyrrolidin-1-yl)pyridin-3-yl)methyl)piperazine-2,3-dione]",31 nM
7,"O=C1C(=O)N(C23CCC(CC2=O)C3)CCN1Cc1nnc(-c2ccccc2)s1 (stereo not drawn) [Example 301, 1-(2-oxobicyclo[2.2.1]heptan-1-yl)-4-((5-phenyl-1,3,4-thiadiazol-2-yl)methyl)piperazine-2,3-dione]",67 nM
8,"O=c1c(=O)n(C23CC(C2)C3)ccn1Cc1ccc(-c2nccs2)nn1 [Example 366, 1-(bicyclo[1.1.1]pentan-1-yl)-4-((6-(thiazol-2-yl)pyridazin-3-yl)methyl)-1,4-dihydropyrazine-2,3-dione]",9 nM
9,"CC(c1ccc(-c2ccccc2)nc1)N1CCN(C2CCCC2)C(=O)C1=O (single isomer, unassigned) [Example 99, (R or S)-1-cyclopentyl-4-(1-(6-phenylpyridin-3-yl)ethyl)piperazine-2,3-dione]",12 nM
10,"O=C1C(=O)N(C2CCCC2)CCN1Cc1ccc(-n2nccn2)nn1 [Example 322, 1-((6-(2H-1,2,3-triazol-2-yl)pyridazin-3-yl)methyl)-4-cyclopentylpiperazine-2,3-dione]",28 nM
11,"N#CC1CC(N2CCN(Cc3nnc(-c4ccccc4)s3)C(=O)C2=O)C1 (stereo not drawn) [Example 285, 3-(2,3-dioxo-4-((5-phenyl-1,3,4-thiadiazol-2-yl)methyl)piperazin-1-yl)cyclobutane-1-carbonitrile]",28 nM
12,"N#CC1(n2ccn(Cc3ccc(-c4ccccc4F)nn3)c(=O)c2=O)CC1 [Example 198, 1-(4-((6-(2-fluorophenyl)pyridazin-3-yl)methyl)-2,3-dioxo-3,4-dihydropyrazin-1(2H)-yl)cyclopropane-1-carbonitrile]",76 nM
13,"CC(C)(C)CN1CCN(Cc2ncc(-c3ccccc3)cn2)C(=O)C1=O [Example 287, 1-neopentyl-4-((5-phenylpyrimidin-2-yl)methyl)piperazine-2,3-dione]",34 nM
14,"O=c1c(=O)n(C23CC(C2)C3)ccn1Cc1cc(-c2ccccc2)on1 [Example 147, 1-(bicyclo[1.1.1]pentan-1-yl)-4-((5-phenylisoxazol-3-yl)methyl)-1,4-dihydropyrazine-2,3-dione]",2 nM
15,"O=C1C(=O)N(C2CCC2)CCN1Cc1ccc(-n2ncnn2)cn1 [Example 176, 1-((5-(2H-tetrazol-2-yl)pyridin-2-yl)methyl)-4-cyclobutylpiperazine-2,3-dione]",40 nM
16,"O=C1C(=O)N(C2CCC2)CCN1Cc1cnc(-c2ccccc2)c(F)c1 [Example 123, 1-cyclobutyl-4-((5-fluoro-6-phenylpyridin-3-yl)methyl)piperazine-2,3-dione]",5 nM
17,"O=c1c(=O)n(C2(CF)CC2)ccn1Cc1cc(-c2ccccn2)on1 [Example 238, 1-(1-(fluoromethyl)cyclopropyl)-4-((5-(pyridin-2-yl)isoxazol-3-yl)methyl)-1,4-dihydropyrazine-2,3-dione]",29 nM
18,"O=C1C(=O)N(C2CCC2)CCN1Cc1cc(-c2ccc(F)cc2)no1 [Example 150, 1-cyclobutyl-4-((3-(4-fluorophenyl)isoxazol-5-yl)methyl)piperazine-2,3-dione]",3 nM
19,"N#CC1(n2ccn(Cc3ccc(-c4nccs4)nn3)c(=O)c2=O)CC1 [Example 204, 1-(2,3-dioxo-4-((6-(thiazol-2-yl)pyridazin-3-yl)methyl)-3,4-dihydropyrazin-1(2H)-yl)cyclopropane-1-carbonitrile]",78 nM

# Continued, values first:
row,EC50,Compound
1,8 nM,"O=C1C(=O)N(C2CCCC2)CCN1Cc1ccc(-c2ccccc2)cc1F [Example 100, 1-cyclopentyl-4-((3-fluoro-[1,1′-biphenyl]-4-yl)methyl)piperazine-2,3-dione]"
2,35 nM,"N#CC1(N2CCN(Cc3nnc(-c4ccccc4)s3)C(=O)C2=O)CC1 [Example 308, 1-(2,3-dioxo-4-((5-phenyl-1,3,4-thiadiazol-2-yl)methyl)piperazin-1-yl)cyclopropane-1-carbonitrile]"
3,995 nM,"O=C1C(=O)N(C23CC(F)(C2)C3)CCN1Cc1cc(-c2cccnc2)no1 [Example 240, 1-(3-fluorobicyclo[1.1.1]pentan-1-yl)-4-((3-(pyridin-3-yl)isoxazol-5-yl)methyl)piperazine-2,3-dione]"
4,5 nM,"O=C1C(=O)N([C@H]2C[C@H]3C[C@H]3C2)CCN1Cc1nnc(-c2cccc(F)c2)s1 [Example 42, 1-((cis)-bicyclo[3.1.0]hexan-3-yl)-4-((5-(3-fluorophenyl)-1,3,4-thiadiazol-2-yl)methyl)piperazine-2,3-dione]"
5,32 nM,"O=C1C(=O)N(C2CCC2)CCN1Cc1nnc(-c2ccccn2)s1 [Example 369, 1-cyclobutyl-4-((5-(pyridin-2-yl)-1,3,4-thiadiazol-2-yl)methyl)piperazine-2,3-dione]"
6,4 nM,"O=C1C(=O)N(C2CCCC2)CCN1Cc1cc(-c2ccccc2)on1 [Example 104, 1-cyclopentyl-4-((5-phenylisoxazol-3-yl)methyl)piperazine-2,3-dione]"
7,1 nM,"O=c1c(=O)n(C2CCC2)ccn1Cc1cc(-c2ccccc2)no1 [Example 151, 1-cyclobutyl-4-((3-phenylisoxazol-5-yl)methyl)-1,4-dihydropyrazine-2,3-dione]"
8,9 nM,"O=C1C(=O)N(C2CC(c3ccccc3)C2)CCN1Cc1ccc(-c2ccccc2)nn1 (stereo not drawn) [Example 7, 1-(3-phenylcyclobutyl)-4-((6-phenylpyridazin-3-yl)methyl)piperazine-2,3-dione]"
9,27 nM,"O=c1c(=O)n(C23CC(C2)C3)ccn1Cc1ccc(-c2ccccn2)cn1 [Example 86, 1-([2,3′-bipyridin]-6′-ylmethyl)-4-(bicyclo[1.1.1]pentan-1-yl)-1,4-dihydropyrazine-2,3-dione]"
10,17 nM,"O=C1C(=O)N(C2CCCC2)CCN1Cc1ccc(-c2nccs2)nc1 [Example 364, 1-cyclopentyl-4-((6-(thiazol-2-yl)pyridin-3-yl)methyl)piperazine-2,3-dione]"
11,10 nM,"O=c1c(=O)n(C23CC(C2)C3)ccn1Cc1cc(-c2cccnc2)no1 [Example 223, 1-(bicyclo[1.1.1]pentan-1-yl)-4-((3-(pyridin-3-yl)isoxazol-5-yl)methyl)-1,4-dihydropyrazine-2,3-dione]"
12,20 nM,"O=C1C(=O)N(C2CCCC2)CCN1Cc1cc2ccccc2[nH]c1=O [Example 354, 1-cyclopentyl-4-((2-oxo-1,2-dihydroquinolin-3-yl)methyl)piperazine-2,3-dione]"
13,52 nM,"CC1CN(Cc2ccc(-n3nccn3)cn2)C(=O)C(=O)N1C1CCC1 (stereo not drawn) [Example 178, 1-((5-(2H-1,2,3-triazol-2-yl)pyridin-2-yl)methyl)-4-cyclobutyl-5-methylpiperazine-2,3-dione]"
14,6 nM,"O=C1C(=O)N([C@@H]2CC[C@@H](c3ccccc3)C2)CCN1Cc1nnc(-c2ccccc2)s1 (single isomer, unassigned) [Example 440B, (R or S, R or S)-1-((5-phenyl-1,3,4-thiadiazol-2-yl)methyl)-4-(3-phenylcyclopentyl)piperazine-2,3-dione]"
15,22 nM,"O=C1C(=O)N(C23CC(C2)C3)CCN1Cc1ccc(-n2nccn2)cn1 [Example 359, 1-((5-(2H-1,2,3-triazol-2-yl)pyridin-2-yl)methyl)-4-(bicyclo[1.1.1]pentan-1-yl)piperazine-2,3-dione]"
16,13 nM,"CC(Cc1nnc(-c2ccccc2)s1)N1CCN(C2CCCC2)C(=O)C1=O (stereo not drawn) [Example 352, 1-cyclopentyl-4-(1-(5-phenyl-1,3,4-thiadiazol-2-yl)propan-2-yl)piperazine-2,3-dione]"
17,37 nM,"O=c1c(=O)n(C2(CF)CC2)ccn1Cc1cc(-c2cccnc2)no1 [Example 246, 1-(1-(fluoromethyl)cyclopropyl)-4-((3-(pyridin-3-yl)isoxazol-5-yl)methyl)-1,4-dihydropyrazine-2,3-dione]"
18,8 nM,"O=C1C(=O)N(C2CCCC2)CCN1Cc1nnc(-c2ccc(F)cc2)s1 [Example 351, 1-cyclopentyl-4-((5-(4-fluorophenyl)-1,3,4-thiadiazol-2-yl)methyl)piperazine-2,3-dione]"
19,42 nM,"CCCOc1ccc(CN2CCN(C3CCCC3)C(=O)C2=O)nn1 [Example 339, 1-cyclopentyl-4-((6-propoxypyridazin-3-yl)methyl)piperazine-2,3-dione]"
20,10 nM,"CC1(N2CCN(Cc3nnc(-c4ccccc4)s3)C(=O)C2=O)CCC1 [Example 166, 1-(1-methylcyclobutyl)-4-((5-phenyl-1,3,4-thiadiazol-2-yl)methyl)piperazine-2,3-dione]"
